# Source: patent US20200010756A1, “SURFACTANT FOR ENHANCED OIL RECOVERY” (Total S.A., priority 2017, published 2020)
smiles,measurement,value
"CCCCCCCCCCCC(=O)NCCCN(C)C [D, dodecylamidopropyl dimethylamine]",stability at high temperature,not stable
